Numbers after ± are expanded uncertainties.
Columns and labels:
[1] = refractive index (Na D-line) (dimensionless); conditions: 293.15 K; 101.33 kPa; Liquid; Standard Abbe refractometry
[2] = Liquid, Ebulliometric method (Recirculating still)

refractive index [1]	vapor or sublimation pressure ([2]; 323.21 K)	vapor or sublimation pressure ([2]; 333.21 K)	vapor or sublimation pressure ([2]; 343.21 K)	vapor or sublimation pressure ([2]; 328.17 K)	vapor or sublimation pressure ([2]; 338.17 K)	vapor or sublimation pressure ([2]; 348.16 K)	Compound
1.4074 ± 0.002	2.417 ± 0.92 kPa	4.027 ± 0.92 kPa	6.331 ± 0.92 kPa				CCCCCCCCC [nonane]
1.3616 ± 0.002	29.58 ± 0.97 kPa	47.04 ± 1 kPa	72.39 ± 1.1 kPa	37.53 ± 0.98 kPa	58.6 ± 1.1 kPa	88.83 ± 1.1 kPa	CCO [ethanol]
1.4122 ± 0.002				1.18 ± 0.92 kPa	1.93 ± 0.92 kPa	3.24 ± 0.92 kPa	CCCCCCCCCC [decane]
